Consider two compounds from ChEMBL document CHEMBL1821652, “QSAR models for predicting enzymatic hydrolysis of new chemical entities in 'soft-drug' design” (Bioorg Med Chem, 2009).

In the data set the test system is Plasma. Put plainly: Half life in human plasma. Type of data set: ADME, cell-free.

For the compound `COC(=O)[C@H](Cc1ccc(OC(C)=O)c(OC(C)=O)c1)NC(=O)CCCC(=O)N[C@@H](Cc1ccc(OC(C)=O)c(OC(C)=O)c1)C(=O)OC`, the t1/2 was 1.05 h. Take `COC(=O)[C@H](Cc1ccc(OC(C)=O)c(OC(C)=O)c1)NC(=O)N[C@@H](Cc1ccc(OC(C)=O)c(OC(C)=O)c1)C(=O)OC`: the t1/2 is 1.698 h.
